Data as given in patent US12427192B2, “Water soluble adjuvant and composition containing same” (Sumitomo Pharma Co., Ltd., priority 2019, dated 2025).

Experiments:
[1] = test system: HLA-A*02:01 transgenic mouse; experiment: Test 12: in vivo adjuvant activity, cocktail vaccine g (emulsified composition 2), IFNγ ELISPOT; conditions: added to cocktail vaccine g (emulsified composition 2); 0.04 nmol or 0.4 nmol per body, twice; FIG. 12 and 13
Method: (§1) Evaluation of In Vivo Adjuvant Activity in HLA-A*02:01 Transgenic Mouse
The in vivo adjuvant activity of the compound of Example 1 was evaluated in the following procedure. To a cocktail vaccine (emulsified composition 2) comprising Compound of formula 4 prepared in Reference example 8 and Peptide SEQ ID No. 3 prepared in Reference example 3 (hereinafter, referred to as “cocktail vaccine g”) was added the compound prepared in Example 1 to prepare a vaccine. The vaccine was administered to a HLA-A*02:01 transgenic mouse, and the adjuvant activity of the vaccine was evaluated by the method of testing antigen-specific CTL induction.
(§2) For example, the above emulsified composition 2 was prepared as follows. 95.8% (w/w) of medium-chain triglyceride (MYGLYOL 812), 3% (w/w) of PEG-30 dipolyhydroxy stearate, and 1.2% (w/w) of polysorbate 80 were mixed to prepare an oil-phase mixture. The amount of the preparation was adjusted as appropriate. Compound of formula 4 and Peptide SEQ ID No. 3 were mixed with pH 2.5 buffer (10 mM tartaric acid, 10% trehalose) to adjust each concentration to 3 mg/mL and 2.25 mg/mL, respectively. The prepared peptide dilution was mixed with an equal volume of the oil-phase mixture to give an emulsified product, cocktail vaccine g. […] Then, after removal of the supernatant from the wells, stained spots on the ELISPOT plate were counted.

[2] = test system: HLA-A*02:01 transgenic mouse; experiment: Test 13: in vivo adjuvant activity, cocktail vaccine h (emulsified composition 3), IFNγ ELISPOT; conditions: added to cocktail vaccine h (emulsified composition 3); 0.04 nmol per body, twice; FIG. 14
Method: as §1
The in vivo adjuvant activity of the compound of Example 1 was evaluated in the following procedure. To a cocktail vaccine (emulsified composition 3) comprising Compound of formula 4 prepared in Reference example 8 and Peptide SEQ ID No. 3 prepared in Reference example 3 (hereinafter, referred to as “cocktail vaccine h”) was added the compound prepared in Example 1 to prepare a vaccine. The vaccine was administered to a HLA-A*02:01 transgenic mouse, and the adjuvant activity of the vaccine was evaluated by the method of testing antigen-specific CTL induction.
as §2, with “composition 3” for “composition 2”, “of isopropyl myristate,” for “of medium-chain triglyceride (MYGLYOL 812),”, “vaccine h.” for “vaccine g.”

[3] = test system: HLA-A*02:01 transgenic mouse; experiment: Test 15: in vivo adjuvant activity, cocktail vaccine j (hydrogel formulation), IFNγ ELISPOT; conditions: added to cocktail vaccine j (hydrogel formulation); 0.4 nmol per body, twice; FIG. 17 and 18
Method: as §1
The in vivo adjuvant activity of the compound of Example 1 was evaluated in the following procedure. To a vaccine (hydrogel formulation) comprising Compound of formula 4 prepared in Reference example 8 and Peptide SEQ ID No. 3 prepared in Reference example 3 (hereinafter, referred to as “cocktail vaccine j”) was added the compound prepared in Example 1 to prepare a vaccine. The vaccine was administered to a HLA-A*02:01 transgenic mouse, and the adjuvant activity of the vaccine was evaluated by the method of testing antigen-specific CTL induction.
For example, the above hydrogel formulation was prepared as follows. Compound of formula 4, Peptide SEQ ID No. 3, and polyoxyethylene(196)polyoxypropylene(67) glycol were mixed with pH 2.5 buffer (10 mM tartaric acid) to adjust each concentration to 1.5 mg/mL, 1.125 mg/mL, and 200 mg/mL, respectively. The mixture was […] to give a hydrogel formulation, cocktail vaccine j. The amount of the preparation was adjusted as appropriate.
Cocktail vaccine j was injected to mice intradermally at the tail base area in an amount for administering 300 μg of Compound of formula 4 per body and 225 μg of Peptide SEQ ID No. 3 per body. […] Then, after removal of the supernatant from the wells, stained spots on the ELISPOT plate were counted.

CCCCCNc1nc(N)nc(C)c1Cc1ccc(CN(C)CCOCCOCCOCCOCCO)cc1OC [Example 1, 1-(4-{[2-amino-4-methyl-6-(pentylamino)pyrimidin-5-yl]methyl}-3-methoxyphenyl)-2-methyl-5,8,11,14-tetraoxa-2-azahexadecan-16-ol·trifluoroacetate]
more: CTL counts responsive to Peptide SEQ ID No. 1 or SEQ ID No. 4 compared with adding no compound [1] | CTL counts responsive to Peptide SEQ ID No. 1 compared with adding no compound [2] | CTL counts responsive to Peptide SEQ ID No. 1 or SEQ ID No. 4 compared with adding no compound [3]
